Values quoted from earlier work, collected in patent US6579533B1, “Bioabsorbable drug delivery system for local treatment and prevention of infections” (Bioasborbable Concepts, Ltd., priority 1999, dated 2003).

Test system: most microbial strains

In the case of O=C(O)c1cn(C2CC2)c2cc(N3CCNCC3)c(F)cc2c1=O [ciprofloxacin], the “minimum inhibition concentration (MIC)” value is given as under 2 µg/mL.
